Test results published in ChEMBL document CHEMBL1201862, “PubChem BioAssay data set” (2004).
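How tested: cells in 96-well plates exposed to compound for 48 hours at five concentrations. At the GI50, growth is halved.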 Activity calls are given as the source filed them. No stated cut-off is given here; in the data, active = GI50 up to about 1.1 µM and inactive = higher.

Key:
Assay in all cases: growth of human tumour cells (NCI), 48 h
CCRF-CEM = tested on: CCRF-CEM
COLO 205 = tested on: COLO 205
HT-29 = tested on: HT-29
IGROV-1 = tested on: IGROV-1
K562 = tested on: K562
LOX IMVI = tested on: LOX IMVI
MDA-N = tested on: MDA-N
OVCAR-4 = tested on: OVCAR-4
OVCAR-5 = tested on: OVCAR-5
OVCAR-8 = tested on: OVCAR-8
RPMI-8226 = tested on: RPMI-8226
RXF 393 = tested on: RXF 393
SF-539 = tested on: SF-539
SK-MEL-28 = tested on: SK-MEL-28
SK-OV-3 = tested on: SK-OV-3
SNB-19 = tested on: SNB-19
SR = tested on: SR
ACHN = tested on: ACHN
HCC 2998 = tested on: HCC 2998
T47D = tested on: T47D

Structure (SMILES)	GI50 (CCRF-CEM)	GI50 (COLO 205)	GI50 (HT-29)	GI50 (IGROV-1)	GI50 (K562)	GI50 (LOX IMVI)	GI50 (MDA-N)	GI50 (OVCAR-4)	GI50 (OVCAR-5)	GI50 (OVCAR-8)	GI50 (RPMI-8226)	GI50 (RXF 393)	GI50 (SF-539)	GI50 (SK-MEL-28)	GI50 (SK-OV-3)	GI50 (SNB-19)	GI50 (SR)	GI50 (ACHN)	GI50 (HCC 2998)	GI50 (T47D)
COC(=O)c1c(O)ccc2c1c1c(n2Cc2ccccc2)C(=O)c2ccccc2C1	21.1 µM (inactive)	15.4 µM (inactive)	18.4 µM (inactive)	40.6 µM (inactive)	2.84 µM (inactive)	26.2 µM (inactive)	43.4 µM (inactive)	18.6 µM (inactive)	0.0282 µM (active)	39.7 µM (inactive)	12.4 µM (inactive)	21.3 µM (inactive)	26.2 µM (inactive)	44.6 µM (inactive)	31.9 µM (inactive)	95.5 µM (inactive)	7.48 µM (inactive)			
S=C1CNC(=S)CN1	> 100 µM (inactive)	> 100 µM (inactive)	> 100 µM (inactive)	> 100 µM (inactive)	> 100 µM (inactive)	> 100 µM (inactive)		> 100 µM (inactive)	> 100 µM (inactive)	> 100 µM (inactive)	> 100 µM (inactive)	> 100 µM (inactive)	> 100 µM (inactive)	> 100 µM (inactive)	> 100 µM (inactive)	> 100 µM (inactive)	> 100 µM (inactive)	> 100 µM (inactive)	> 100 µM (inactive)	
CN(C)CN1C(=O)S/C(=C2\C(=O)N(CN(C)C)c3ccccc32)C1=O		36.4 µM (inactive)	42.4 µM (inactive)	57.5 µM (inactive)		21.2 µM (inactive)		55.1 µM (inactive)	> 100 µM (inactive)	46.6 µM (inactive)	18 µM (inactive)	19.9 µM (inactive)	40.6 µM (inactive)	64.7 µM (inactive)	> 100 µM (inactive)	67.5 µM (inactive)	18.9 µM (inactive)	43.7 µM (inactive)	26.8 µM (inactive)	39.4 µM (inactive)
CC(=O)Oc1ccc2c(c1)C(=O)c1nc(C)c(C)nc1C2=O	35.4 µM (inactive)	50 µM (inactive)	31.8 µM (inactive)	46.8 µM (inactive)	47 µM (inactive)	39.4 µM (inactive)		46.3 µM (inactive)	> 100 µM (inactive)	45.1 µM (inactive)	39.8 µM (inactive)	31.8 µM (inactive)	25.8 µM (inactive)	46.1 µM (inactive)	71.8 µM (inactive)	> 52.4 µM (inactive)	29.6 µM (inactive)	48.4 µM (inactive)	21.4 µM (inactive)	
COc1ccc(SS(=O)(=O)c2ccc(OC)cc2)cc1	2.64 µM (inactive)	17.9 µM (inactive)	32.1 µM (inactive)	10 µM (inactive)	21.7 µM (inactive)	17.5 µM (inactive)			30 µM (inactive)	16.6 µM (inactive)	27.5 µM (inactive)	18.1 µM (inactive)	18.8 µM (inactive)	19.6 µM (inactive)	34.2 µM (inactive)	24.4 µM (inactive)	23.1 µM (inactive)	18.4 µM (inactive)	13.6 µM (inactive)	
BrCC(Br)(c1ccccc1)c1ccccc1-c1cc(-c2ccccc2)cc(-c2ccccc2)n1 (stereo not given)	3.66 µM (inactive)	1.43 µM (inactive)	2.25 µM (inactive)	3.2 µM (inactive)	0.893 µM (active)	2.29 µM (inactive)	3.01 µM (inactive)	4.05 µM (inactive)	3.67 µM (inactive)	3.06 µM (inactive)	0.908 µM (active)	2 µM (inactive)	4.3 µM (inactive)	4.46 µM (inactive)		4.86 µM (inactive)	3.89 µM (inactive)	7.01 µM (inactive)	2.05 µM (inactive)	
